The values that follow come from patent US6890887B2, “Synergistic herbicidal methods and compositions comprising dinitroaniline and imidazolinone compounds” (BASF Aktiengesellschaft, priority 1999, dated 2005).

Experiment in all cases: Preemergence field plot evaluation of percent weed control
Format in all cases: in vivo
Common to all, as to conditions: visual, 60 days after application

Assay [1] concerns Polygonum persicaria. As for the experimental part:
(§1) In the following examples, synergism is determined by the Colby^1 method, i.e. the expected (or predicted) response of the combination is calculated by taking the product of the observed response for each individual component of the combination when applied alone divided by 100 and subtracting this value from the sum of the observed response for each component when applied alone. Synergism of the combination is then determined by comparing the observed response of the combination to the expected (or predicted) response as calculated from the observed response of each individual component alone.
(§2) The foregoing is illustrated mathematically below, wherein a combination, C, is composed of component A plus component B and Obs. designates the observed response of the combination C. [formula]
(§3) Formulations containing imazamox^1, pendimethalin^2 and an imazamox/pendimethalin combination^3 are diluted with water and applied preemergence at volumes of 200 L/ha to 400 L/ha to field plots to provide the rates shown in Table I. 60 days after application, the plots are visually evaluted for percent weed control. The results are summarized in Table I. If more than one plot is included in an evaluation, the results are averaged.
(§4) ^1 BOLERO® 40 SL, an imazamox aqueous concentrate commercially available from American Cyanamid Company, Parsippany, N.J.
(§5) ^2 STOMP® 400 SC, a pendimethalin suspension concentrate commercially available from American Cyanamid Company, Parsippany, N.J.
(§6) ^3 An emulsifiable concentrate containing imazamox and pendimethalin.

The subject of assay [2] is Setaria verticilliata. As for the experimental part:
as §1, §2, §3, §4, §5, §6

In assay [3] the test system is Poa annua. As for the experimental part: as §1, §2, §3, §4, §5, §6

Turning to `CCC(CC)Nc1c([N+](=O)[O-])cc(C)c(C)c1[N+](=O)[O-]` [Pendimethalin], the “% Weed Control Observed” value in assay [1] (pendimethalin 1,125 g/ha alone) was determined as 76%; in assay [2] (pendimethalin 1,125 g/ha alone), 86%; in assay [3] (pendimethalin 1,125 g/ha alone), 63%.
For the compound `COCc1cnc(C2=NC(C)(C(C)C)C(=O)N2)c(C(=O)O)c1` (stereo not drawn) [Imazamox, 2-(4-isopropyl-4-methyl-5-oxo-2-imidazolin-2-yl)-5-(methoxymethyl)nicotinic acid], the “% Weed Control Observed” value came out at 66% in assay [1] (imazamox 75 g/ha alone), 45% in assay [2] (imazamox 75 g/ha alone) and 68% in assay [3] (imazamox 75 g/ha alone).
